As usually defined, the EC50 is the concentration needed to bring the measured effect to its halfway point. The low end stands for a more potent agent, the high end for a less potent agent.

Residues, ends and D or L forms follow the SMILES beside them.
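Note: Cell-associated radioactivity on confluent EFO-27 monolayers in 96-well plates, measured by microplate scintillation counting.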

One assay relates to LHRH binding sites on human ovarian cancer cells (EFO-27).
Settings: not given
`CC(=O)N[C@H](Cc1ccc2ccccc2c1)C(=O)N[C@@H](CCCNC(=N)N)C(=O)N[C@@H](Cc1c[nH]c2ccccc12)C(=O)N[C@@H](CO)C(=O)N[C@@H](Cc1c[nH]cn1)C(=O)N[C@H](CCCNC(=N)N)C(=O)N[C@@H](Cc1c[nH]c2ccccc12)C(=O)N[C@@H](Cc1ccc(C(=O)c2ccccc2)cc1)C(=O)N1CCC[C@H]1C(=O)NCCOCCNC(=O)CN1CCN(CC(=O)O)CCN(CC(=O)O)CCN(CC(=O)O)CC1` [BRU-2992] yielded an EC50 of 230 to 500 nM.
For `N=C(N)NCCC[C@H](NC(=O)[C@@H](Cc1ccc2ccccc2c1)NC(=O)CN1CCN(CC(=O)O)CCN(CC(=O)O)CCN(CC(=O)O)CC1)C(=O)N[C@@H](Cc1c[nH]c2ccccc12)C(=O)N[C@@H](Cc1ccncc1)C(=O)N[C@@H](Cc1c[nH]cn1)C(=O)N[C@H](CCCNC(=N)N)C(=O)N[C@@H](Cc1c[nH]c2ccccc12)C(=O)N[C@@H](Cc1ccc(C(=O)c2ccccc2)cc1)C(=O)N1CCC[C@H]1C(=O)NNC(N)=O` [compound 2957], the EC50 came to 840 nM.
On the same count and under the same terms, for `N=C(N)NCCC[C@H](NC(=O)[C@H](N)Cc1ccc2ccccc2c1)C(=O)N[C@@H](Cc1c[nH]c2ccccc12)C(=O)N[C@@H](CO)C(=O)N[C@@H](Cc1c[nH]cn1)C(=O)N[C@H](CCCNC(=N)N)C(=O)N[C@@H](Cc1c[nH]c2ccccc12)C(=O)N[C@@H](Cc1ccc(C(=O)c2ccccc2)cc1)C(=O)N1CCC[C@H]1C(=O)NCCCCNC(=O)CN1CCN(CC(=O)O)CCN(CC(=O)O)CCN(CC(=O)O)CC1` [BRU-3042] the value was at most 200 nM; for `CNCC(=O)N[C@@H](Cc1c[nH]cn1)C(=O)N[C@@H](Cc1c[nH]c2ccccc12)C(=O)N[C@@H](CO)C(=O)N[C@@H](Cc1c[nH]cn1)C(=O)N[C@H](CCCNC(=N)N)C(=O)N[C@@H](Cc1c[nH]c2ccccc12)C(=O)N[C@@H](Cc1ccc(C(=O)c2ccccc2)cc1)C(=O)N1CCC[C@H]1C(=O)NCCNC(=O)CN1CCN(CC(=O)O)CCN(CC(=O)O)CCN(CC(=O)O)CC1` [BRU-3079], 590 to 1000 nM.
`CNCC(=O)N[C@@H](CCCNC(=N)N)C(=O)N[C@@H](Cc1c[nH]c2ccccc12)C(=O)N[C@@H](CO)C(=O)N[C@@H](Cc1c[nH]cn1)C(=O)N[C@H](CCCNC(=N)N)C(=O)N[C@@H](Cc1c[nH]c2ccccc12)C(=O)N[C@@H](Cc1ccc(C(=O)c2ccccc2)cc1)C(=O)N1CCC[C@H]1C(=O)NCC1CCCCN1C(=O)CN1CCN(CC(=O)O)CCN(CC(=O)O)CCN(CC(=O)O)CC1` (some centres unmarked) [compound 3102]: it took 200 ± 70 nM to reach a half-maximal effect (EC50).
Regarding `CN(CC(=O)N[C@@H](Cc1c[nH]cn1)C(=O)N[C@@H](Cc1c[nH]c2ccccc12)C(=O)N[C@@H](CO)C(=O)N[C@@H](Cc1c[nH]cn1)C(=O)N[C@H](CCCNC(=N)N)C(=O)N[C@@H](Cc1c[nH]c2ccccc12)C(=O)N[C@@H](Cc1cccc2ccccc12)C(=O)N1CCC[C@H]1C(=O)NNC(N)=O)C(=O)CN1CCN(CC(=O)O)CCN(CC(=O)O)CCN(CC(=O)O)CC1` [BRU-2720], a half-maximal effect (EC50) was put at 540 nM.
With `N=C(N)NCCC[C@H](NC(=O)[C@H](N)Cc1ccc2ccccc2c1)C(=O)N[C@@H](Cc1c[nH]c2ccccc12)C(=O)N[C@@H](CO)C(=O)N[C@@H](Cc1c[nH]cn1)C(=O)N[C@H](CCCNC(=N)N)C(=O)N[C@@H](Cc1c[nH]c2ccccc12)C(=O)N[C@@H](Cc1ccc(C(=O)c2ccccc2)cc1)C(=O)N1CCC[C@H]1C(=O)NCC(=O)NCCCCNC(=O)CN1CCN(CC(=O)O)CCN(CC(=O)O)CCN(CC(=O)O)CC1` [compound 2990], it took 30200 ± 8280 nM to reach a half-maximal effect (EC50).
For the compound `CNCC(=O)N[C@@H](CCCNC(=N)N)C(=O)N[C@@H](Cc1c[nH]c2ccccc12)C(=O)N[C@@H](CO)C(=O)N[C@@H](Cc1c[nH]cn1)C(=O)N[C@H](CCCNC(=N)N)C(=O)N[C@@H](Cc1c[nH]c2ccccc12)C(=O)N[C@@H](Cc1ccc(C(=O)c2ccccc2)cc1)C(=O)N1CCC[C@H]1C(=O)NCc1cccc(CNC(=O)CN2CCN(CC(=O)O)CCN(CC(=O)O)CCN(CC(=O)O)CC2)n1` [BRU-3080], the EC50 was 230 to 500 nM.
The compound `CN(CC(=O)N[C@@H](Cc1c[nH]cn1)C(=O)N[C@@H](Cc1c[nH]c2ccccc12)C(=O)N[C@@H](CO)C(=O)N[C@@H](Cc1c[nH]cn1)C(=O)N[C@H](CCCNC(=N)N)C(=O)N[C@@H](Cc1c[nH]c2ccccc12)C(=O)N[C@@H](Cc1ccc(C(=O)c2ccccc2)cc1)C(=O)N1CCC[C@H]1C(=O)NNC(N)=O)C(=O)c1ccc(CNC(=O)CN2CCN(CC(=O)O)CCN(CC(=O)O)CCN(CC(=O)O)CC2)cc1` [compound 2727] gave an EC50 of 650 nM.
Consider `CC(=O)N[C@H](Cc1ccc2ccccc2c1)C(=O)N[C@@H](CCCNC(=N)N)C(=O)N[C@@H](Cc1c[nH]c2ccccc12)C(=O)N[C@@H](CO)C(=O)N[C@@H](Cc1c[nH]cn1)C(=O)N[C@H](CCCNC(=N)N)C(=O)N[C@@H](Cc1c[nH]c2ccccc12)C(=O)N[C@@H](Cc1ccc(C(=O)c2ccccc2)cc1)C(=O)N1CCC[C@H]1C(=O)NCCOCCNC(=O)CN1CCN(CC(=O)O)CCN(CC(=O)O)CCN(CC(=O)O)CC1` [compound 2992], for which the EC50 amounted to 470 ± 20 nM.
The compound `N=C(N)NCCC[C@H](NC(=O)[C@@H](Cc1ccc2ccccc2c1)NC(=O)CN1CCN(CC(=O)O)CCN(CC(=O)O)CCN(CC(=O)O)CC1)C(=O)N[C@@H](Cc1c[nH]c2ccccc12)C(=O)N[C@@H](CO)C(=O)N[C@@H](Cc1c[nH]cn1)C(=O)N[C@H](CCCNC(=N)N)C(=O)N[C@@H](Cc1c[nH]c2ccccc12)C(=O)N[C@@H](Cc1ccc(C(=O)c2ccccc2)cc1)C(=O)N1CCC[C@H]1C(=O)Nc1ccccc1` [compound 3006] yielded an EC50 of 420 nM.
The same measure, in the same setting: for `CNCC(=O)N[C@@H](CCCNC(=N)N)C(=O)N[C@@H](Cc1c[nH]c2ccccc12)C(=O)N[C@@H](CO)C(=O)N[C@@H](Cc1c[nH]cn1)C(=O)N[C@H](CCCNC(=N)N)C(=O)N[C@@H](Cc1c[nH]c2ccccc12)C(=O)N[C@@H](Cc1ccc(C(=O)c2ccccc2)cc1)C(=O)N1CCC[C@H]1C(=O)NCCCN1CCN(CCCNC(=O)CN2CCN(CC(=O)O)CCN(CC(=O)O)CCN(CC(=O)O)CC2)CC1` [compound 3044] the value was 240 ± 80 nM; for `CNCC(=O)N[C@@H](CCCNC(=N)N)C(=O)N[C@@H](Cc1c[nH]c2ccccc12)C(=O)N[C@@H](CO)C(=O)N[C@@H](Cc1c[nH]cn1)C(=O)N[C@H](CCCNC(=N)N)C(=O)N[C@@H](Cc1c[nH]c2ccccc12)C(=O)N[C@@H](Cc1ccc(C(=O)c2ccccc2)cc1)C(=O)N1CCC[C@H]1C(=O)NCCOCCNC(=O)CN1CCN(CC(=O)O)CCN(CC(=O)O)CCN(CC(=O)O)CC1` [BRU-3039], 230 to 500 nM; for `CNCC(=O)N[C@@H](Cc1c[nH]cn1)C(=O)N[C@@H](Cc1c[nH]c2ccccc12)C(=O)N[C@@H](CO)C(=O)N[C@@H](Cc1c[nH]cn1)C(=O)N[C@H](CCCNC(=N)N)C(=O)N[C@@H](Cc1c[nH]c2ccccc12)C(=O)N[C@@H](Cc1ccc(O)cc1)C(=O)N1CCC[C@H]1C(=O)NNC(N)=O` [BRU-2439, [Sar^1, Darg^6, azaGly^10]LHRH-II] (HELM PEPTIDE1{[Sar].H.W.S.H.[dR].W.Y.P.[O=C(NN[*:1])[*:2]].[am]}$$$$V2.0; N-terminus assumed), 250 nM.
With `CN(CC(=O)N[C@@H](Cc1c[nH]cn1)C(=O)N[C@@H](Cc1c[nH]c2ccccc12)C(=O)N[C@@H](CO)C(=O)N[C@@H](Cc1c[nH]cn1)C(=O)N[C@H](CCCNC(=N)N)C(=O)N[C@@H](Cc1c[nH]c2ccccc12)C(=O)N[C@@H](Cc1ccc(Cl)cc1)C(=O)N1CCC[C@H]1C(=O)NNC(N)=O)C(=O)CN1CCN(CC(=O)O)CCN(CC(=O)O)CCN(CC(=O)O)CC1` [BRU-2725], it took 2260 nM to reach a half-maximal effect (EC50).

Still in this assay, the particulars now being: EFO-27 cells, competition with [125I-Tyr8]BRU-2477, 90 min.
As to `N=C(N)NCCC[C@H](NC(=O)[C@@H](Cc1ccc2ccccc2c1)NC(=O)CN1CCN(CC(=O)O)CCN(CC(=O)O)CCN(CC(=O)O)CC1)C(=O)N[C@@H](Cc1c[nH]c2ccccc12)C(=O)N[C@@H](CO)C(=O)N[C@@H](Cc1c[nH]cn1)C(=O)N[C@H](CCCNC(=N)N)C(=O)N[C@@H](Cc1c[nH]c2ccccc12)C(=O)N[C@@H](Cc1ccc(C(=O)c2ccccc2)cc1)C(=O)N1CCC[C@H]1C(=O)NCC(=O)NCCCCO` [compound 2986], a half-maximal effect (EC50) was put at 1660 nM.
In turn, `N=C(N)NCCC[C@H](NC(=O)[C@@H](Cc1ccc2ccccc2c1)NC(=O)CN1CCN(CC(=O)O)CCN(CC(=O)O)CCN(CC(=O)O)CC1)C(=O)N[C@@H](Cc1c[nH]c2ccccc12)C(=O)N[C@@H](CO)C(=O)N[C@@H](Cc1c[nH]cn1)C(=O)N[C@H](CCCNC(=N)N)C(=O)N[C@@H](Cc1c[nH]c2ccccc12)C(=O)N[C@@H](Cc1ccc(C(=O)c2ccccc2)cc1)C(=O)N1CCCC[C@H]1C(=O)NNC(N)=O` [compound 2996] had an EC50 of 350 nM.

Still in this assay, the particulars now being: Table 5: modifications of amino acids at positions 1 and 2; in vitro binding on EFO-27 cells.
For `CCN(CC(=O)N[C@@H](Cc1c[nH]cn1)C(=O)N[C@@H](Cc1c[nH]c2ccccc12)C(=O)N[C@@H](CO)C(=O)N[C@@H](Cc1c[nH]cn1)C(=O)N[C@H](CCCNC(=N)N)C(=O)N[C@@H](Cc1c[nH]c2ccccc12)C(=O)N[C@@H](Cc1ccc(C(=O)c2ccccc2)cc1)C(=O)N1CCC[C@H]1C(=O)NNC(N)=O)C(=O)CN1CCN(CC(=O)O)CCN(CC(=O)O)CCN(CC(=O)O)CC1` [BRU-2788], a half-maximal response (EC50) required 210 nM.
For the compound `N=C(N)NCCC[C@@H](NC(=O)[C@H](Cc1c[nH]cn1)NC(=O)[C@H](CO)NC(=O)[C@H](Cc1c[nH]c2ccccc12)NC(=O)[C@H](Cc1c[nH]cn1)NC(=O)[C@@H](Cc1ccccc1)NC(=O)CN1CCN(CC(=O)O)CCN(CC(=O)O)CCN(CC(=O)O)CC1)C(=O)N[C@@H](Cc1c[nH]c2ccccc12)C(=O)N[C@@H](Cc1ccc(C(=O)c2ccccc2)cc1)C(=O)N1CCC[C@H]1C(=O)NNC(N)=O` [BRU-2894], the EC50 is 2000 nM.

Still in this assay, the particulars now being: Table 13: linker between AA1 and DO3A10CM; EFO-27 cells.
As to `CN(CC(=O)N[C@@H](Cc1c[nH]cn1)C(=O)N[C@@H](Cc1c[nH]c2ccccc12)C(=O)N[C@@H](CO)C(=O)N[C@@H](Cc1c[nH]cn1)C(=O)N[C@H](CCCNC(=N)N)C(=O)N[C@@H](Cc1c[nH]c2ccccc12)C(=O)N[C@@H](Cc1ccc(C(=O)c2ccccc2)cc1)C(=O)N1CCC[C@H]1C(=O)NNC(N)=O)C(=O)CNC(=O)CN1CCN(CC(=O)O)CCN(CC(=O)O)CCN(CC(=O)O)CC1` [compound 2717], the EC50 is 1530 nM.

The values above are taken from patent publication US20120045393A1 (priority 2009, published 2012).
